One experiment relates to ob/ob mice. In words: Food intake test in ob/ob mice. Type of experiment: in vivo. The procedure: 5-HT2C receptor agonists (2R)-methyl-1-{3-[2-(3-pyridinyloxy)ethoxy]-2-pyrazinyl}piperazine, fumarate (“PNU-183933F”) and (2R)-1-(3-{2-[(2-ethoxy-3-pyridinyl)oxy]ethoxy}-2-pyrazinyl)-2-methylpiperazine, fumarate (“BVT.2938F”) were dissolved in saline (0.9% NaCl) and diluted in the same vehicle to the appropriate concentration.
5-HT6 receptor antagonists 6-methyl-9-(phenylsulfonyl)-1,2,3,4,5,6-hexahydroazepino[4,5-b]indole, hydrochloride (“PNU-186053A”) and 1-(phenylsulfonyl)-4-(1-piperazinyl)-1H-indole, hydrochloride (5-HT6 receptor antagonist (“BVT.5182C”) were dissolved and diluted in 25% cyclodextrin.
Male mice 8-9 weeks old (C57BL/6JBom-Lep^ob (ob/ob), Bomholtsgaard, Denmark) with an average body weight of 45 g were used. The animals were housed singly in cages at 23±1° C., 40-60% humidity and had free access to water and standard laboratory chow. The 12/12 h light/dark cycle was set to lights off at 5 p.m. The animals were conditioned for at least one week before start of study. During experimental sessions, the animals obtained special chow (BioServ, Frenchtown, N.J., USA dust-free precision pellets weighing 20 mg each).
At the start of the study the animals were transferred to special cages “operant test cages” (Habitest Modular Animal Behavior Test System; Colbourn Instr, Allentown, Pa., USA). These cages consist of a feeder trough with sensors for measurement of food intake, an optic lickometer for registration of water intake and an infrared-based monitor for recording overall general motor activity. The monitors are coupled to a computer, which controls and monitor events continuously. Food pellets were weighed to the amount needed for one whole study and water bottles were filled with fresh tap water and weighed. The animals were conditioned to their new environment for three days to establish baseline values. The animals were weighed at 3 p.m. at the start and at the end of the study. The compounds were administered between 4.20 and 5.00 p.m. before dark onset. Three groups of animals received (i) 5-HT6 antagonist in 25% cyclodextrin; (ii) 5-HT2C agonist in saline; and (iii) the combination 5-HT2C agonist/5-HT6 antagonist, respectively. When combined, 5-HT6 antagonist or saline was administered 30 min before administration of the 5-HT2C agonist or 25% cyclodextrin. A fourth group received respectively vehicle administered in the same way. The study ended on the fifth day. Weighing was performed with a computer-assisted Mettler-Toledo PR5002/PR802 balance.
Each dose group consisted of 12-16 animals. […] The values were expressed as % of basal food intake (mean±SEM) for the difference between food intake before treatment and 3 h (5 pm-8 pm), 6 h (5 pm-11 pm), 12 h (5 pm-5 am), 21 h (5 pm-2 pm).

For another experiment, the system named is humans. The conditions noted are these: cited from earlier work.
In experiment [1] the test system is mice that express the normal 5-HT2C receptor / mutated inactive form. The conditions noted are these: cited from earlier work.
The mark [2] stands for this setting: combination BVT.2938F 5 mg/kg subcutaneously + BVT.5182C 3 mg/kg subcutaneously, at 12 and 21 hours following administration, FIG. 2.
Setting [3] is: combination PNU-186053A 50 mg/kg subcutaneously + PNU-183933F 50 mg/kg per orally, FIG. 1.

Like-named read-outs stand apart in the source and are kept apart here.

Take `CCOc1ncccc1OCCOc1nccnc1N1CCNC[C@H]1C.O=C(O)/C=C/C(=O)O` [BVT.2938F, (2R)-1-(3-{2-[(2-ethoxy-3-pyridinyl)oxy]ethoxy}-2-pyrazinyl)-2-methylpiperazine, fumarate]: the “food consumption (food intake), combined treatment vs compounds given alone” value (from here on “food consumption … vs compounds given alone”) in the experiment on ob/ob mice (setting [2]) was “significantly more than the compounds given alone”.

As for `Cl.O=S(=O)(c1ccccc1)n1ccc2c(N3CCNCC3)cccc21` [BVT.5182C, 1-(phenylsulfonyl)-4-(1-piperazinyl)-1H-indole, hydrochloride], the “food consumption … vs compounds given alone” value in the experiment on ob/ob mice (setting [2]) is given as “significantly more than the compounds given alone”.

In the case of `C[C@@H]1CNCCN1c1nccnc1OCCOc1cccnc1.O=C(O)/C=C/C(=O)O` [PNU-183933F, (2R)-methyl-1-{3-[2-(3-pyridinyloxy)ethoxy]-2-pyrazinyl}piperazine, fumarate], the “food consumption … vs compounds given alone” value in the experiment with ob/ob mice (setting [3]) was “decreased food consumption significantly more than the compounds given alone”.

As to `Cl.Cn1c2c(c3cc(S(=O)(=O)c4ccccc4)ccc31)CCNCC2` [PNU-186053A, 6-methyl-9-(phenylsulfonyl)-1,2,3,4,5,6-hexahydroazepino[4,5-b]indole, hydrochloride], in the experiment with ob/ob mice (setting [3]), the “food consumption … vs compounds given alone” value is “decreased food consumption significantly more than the compounds given alone”.

Turning to `Cn1c2c(c3ccccc31)CCNCC2` [U-22394A], the body weight entry in the experiment on humans (nine weeks of treatment) is “reduce body weight”.

Take `Clc1cccc(N2CCNCC2)c1` [m-CPP, m-chlorophenylpiperazine]: the body weight entry in the experiment on humans (two weeks of treatment) is given as “reduce body weight”. Also, the food intake result in experiment [1] (mice expressing the mutated inactive form of the 5-HT2C receptor) is listed as “lacks activity”; in experiment [1] (mice that express the normal 5-HT2C receptor), “reduces food intake”.

The values above are taken from US6818639B2, “Pharmaceutical combination formulation and method of treatment with the combination” (Biovitrum AB, priority 2000, dated 2004).
